Assay results from PubChem BioAssay AID1259407 (Chemical Carcinogenesis Research Information System (CCRIS), 2018).
Activity calls are given as the source filed them. How the calls were made is not given here.

Tested on: CCRIS mutagenicity, Ames/micronucleus/aberration tests
Test: CCRIS mutagenicity studies

For `ClC(Cl)Br`, the mutagenic call (End Point: Ames Salmonella typhimurium, Test System: TA97, Metabolic Activation: Hamster, liver, S-9 (10 & 30%), Aroclor 1254, Method: Preincubation) was “inactive; negative”, the mutagenic call (End Point: Ames Salmonella typhimurium, Test System: TA97, Metabolic Activation: None, Method: Preincubation) was “inactive; negative” and the mutagenic call (End Point: Ames Salmonella typhimurium, Test System: TA97, Metabolic Activation: Rat, liver, S-9 (10 & 30%), Aroclor 1254, Method: Preincubation) was “inactive; negative”. For the same molecule, the mutagenic call (End Point: Ames Salmonella typhimurium, Test System: TA98, Metabolic Activation: Hamster, liver, S-9 (10 & 30%), Aroclor 1254, Method: Preincubation) was “inactive; negative”, the mutagenic call (End Point: Ames Salmonella typhimurium, Test System: TA98, Metabolic Activation: None, Method: Preincubation) was “inactive; negative” and the mutagenic call (End Point: Ames Salmonella typhimurium, Test System: TA98, Metabolic Activation: Rat, liver, S-9 (10 & 30%), Aroclor 1254, Method: Preincubation) was “inactive; negative”. The mutagenic call (End Point: Ames Salmonella typhimurium, Test System: TA100, Metabolic Activation: Hamster, liver, S-9 (10 & 30%), Aroclor 1254, Method: Preincubation) was “inactive; negative”, the mutagenic call (End Point: Ames Salmonella typhimurium, Test System: TA100, Metabolic Activation: None, Method: Preincubation) was “inactive; negative” and the mutagenic call (End Point: Ames Salmonella typhimurium, Test System: TA100, Metabolic Activation: Rat, liver, S-9 (10 & 30%), Aroclor 1254, Method: Preincubation) was “inactive; negative”. For the same molecule, the mutagenic call (End Point: Ames Salmonella typhimurium, Test System: TA1535, Metabolic Activation: Hamster, liver, S-9 (10 & 30%), Aroclor 1254, Method: Preincubation) was “inactive; negative”, the mutagenic call (End Point: Ames Salmonella typhimurium, Test System: TA1535, Metabolic Activation: None, Method: Preincubation) was “inactive; negative” and the mutagenic call (End Point: Ames Salmonella typhimurium, Test System: TA1535, Metabolic Activation: Rat, liver, S-9 (10 & 30%), Aroclor 1254, Method: Preincubation) was “inactive; negative”. For the same molecule, the mutagenic call (End Point: IN VITRO CHROMOSOMAL ABERRATIONS, Test System: CHINESE HAMSTER LUNG FIBROBLAST CELLS (CHL/IU), Metabolic Activation: RAT, LIVER, S-9, PHENOBARBITAL AND 5,6-BENZOFLAVONE) was “active; positive (structural changes)”, the mutagenic call (End Point: IN VITRO CHROMOSOMAL ABERRATIONS, Test System: CHO CELLS, Metabolic Activation: NONE) was “inactive; negative” and the mutagenic call (End Point: IN VITRO CHROMOSOMAL ABERRATIONS, Test System: CHO CELLS, Metabolic Activation: RAT, LIVER, S-9, AROCLOR 1254) was “inactive; negative”. For the same molecule, the mutagenic call (End Point: In vivo micronucleus, Test System: Bone marrow polychromatic erythrocytes, Species: Mouse, Strain/Sex: B6C3F1/Male, Route: Intraperitoneal) was “inactive; negative; strain was inferred”, the mutagenic call (End Point: In vivo micronucleus, Test System: Peripheral blood normochromatic erythrocytes, Species: Mouse, Strain/Sex: B6C3F1/Female, Route: Oral) was “inactive; negative” and the mutagenic call (End Point: In vivo micronucleus, Test System: Peripheral blood normochromatic erythrocytes, Species: Mouse, Strain/Sex: B6.129-Trp53tm1Brd (N5) p53 Haploinsufficient//Male, Route: Oral) was “inactive; negative”. The mutagenic call (End Point: In vivo micronucleus, Test System: Peripheral blood normochromatic erythrocytes, Species: Mouse, Strain/Sex: B6.129-Trp53tm1Brd (N5) p53 Haploinsufficient/Female, Route: Oral) was “inactive; negative”, the mutagenic call (End Point: In vivo micronucleus, Test System: Peripheral blood normochromatic erythrocytes, Species: Mouse, Strain/Sex: B6.129-Trp53tm1Brd (N5) p53 Haploinsufficient/Male, Route: Oral) was “inactive; negative, positive results only at 350 mg/l; trend test not significant” and the mutagenic call (End Point: In vivo micronucleus, Test System: Peripheral blood normochromatic erythrocytes, Species: Mouse, Strain/Sex: FVB Tg.AC hemizygous/Female, Route: Dermal) was “inactive; negative”. For the same molecule, the mutagenic call (End Point: In vivo micronucleus, Test System: Peripheral blood normochromatic erythrocytes, Species: Mouse, Strain/Sex: FVB Tg.AC hemizygous/Female, Route: Oral) was “inactive; negative”, the mutagenic call (End Point: In vivo micronucleus, Test System: Peripheral blood normochromatic erythrocytes, Species: Mouse, Strain/Sex: FVB Tg.AC hemizygous/Male, Route: Dermal) was “inactive; negative” and the mutagenic call (End Point: In vivo micronucleus, Test System: Peripheral blood normochromatic erythrocytes, Species: Mouse, Strain/Sex: FVB Tg.AC hemizygous/Male, Route: Oral) was “inactive; negative”. The mutagenic call (End Point: Mouse Lymphoma, Test System: L5178Y (TK+/TK-), Metabolic Activation: None, Method: Suspension/Plate) was “inactive; negative”, the mutagenic call (End Point: Mouse Lymphoma, Test System: L5178Y (TK+/TK-), Metabolic Activation: Rat, liver, S-9, Aroclor 1254, Method: Suspension/Plate) was “active; positive” and the mutagenic call (Test System: AMES SALMONELLA TYPHIMURIUM, Strain/Indicator: RSJ100, Metabolic Activation: NONE, Method: STANDARD PLATE) was “active; positive”. The mutagenic call (Test System: AMES SALMONELLA TYPHIMURIUM, Strain/Indicator: TA97, Metabolic Activation: NONE, Method: STANDARD PLATE) was “inactive; negative” and the mutagenic call (Test System: AMES SALMONELLA TYPHIMURIUM, Strain/Indicator: TA97, Metabolic Activation: RAT, LIVER, S-9, AROCLOR 1254, Method: STANDARD PLATE) was “active; positive”.
